US20050282743A1, “Molecular interactions in cells” (Arbor Vita Corporation, priority 2001, published 2005)
One block for each compound: values may come before it. Peptide text beside a SMILES is read from it. * marks the point of attachment. Biotin = O=C1N[C@H]2[C@H](CS[C@H]2CCCCC(=O)*)N1

Experiments:
Test in all cases: Apparent affinity (Kd) by titration of PL peptide in the G assay
Format in all cases: binding
[1] = molecular target: T1, PDZ-domain polypeptide (GST/PDZ fusion protein) (Homo sapiens, UniProt Q9HD26); settings: Peptide Optimal Conc (Kd by titration of the PL peptide), PDZ PIST, PDZ Domain 1
T1 construct: made in house; host or cells: E. coli (DH5alpha, BL21 or JM109)
Summary of the method: (§1)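 A fixed concentration of GST/PDZ fusion protein, 5 ug/ml by default, was mixed in solution with increasing labeled PL peptide (e.g. 0.1 uM-1 mM). Reaction times ranged from 10 minutes to 2 days at 4-37° C. Complexes were separated from free peptide and detected via the label as in the G assay, apparent affinity coming from the saturating concentration.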

[2] = molecular target: T2, PDZ-domain polypeptide (GST/PDZ fusion protein) (Homo sapiens, UniProt Q9UDY2); settings: Peptide Optimal Conc (Kd by titration of the PL peptide), PDZ ZO-2, PDZ Domain 1
T2 construct: made in house; host or cells: E. coli (DH5alpha, BL21 or JM109)
Summary of the method: as §1

[3] = molecular target: T3, PDZ-domain polypeptide (GST/PDZ fusion protein) (Homo sapiens, UniProt P57105); settings: PDZ Outer Membrane, PDZ Domain 1; Protein Optimal Conc 5
T3 construct: made in house; host or cells: E. coli (DH5alpha, BL21 or JM109)
Summary of the method: as §1

[4] = molecular target: T4, PDZ-domain polypeptide (GST/PDZ fusion protein) (Homo sapiens, UniProt O14907); settings: PDZ TIP1, PDZ Domain 1; titration of the PL peptide; read-out: Peptide Optimal Conc (Kd, dissociation constant)
T4 construct: made in house; host or cells: E. coli (DH5alpha, BL21 or JM109)
Summary of the method: as §1

[5] = molecular target: T5, PDZ-domain polypeptide (GST/PDZ fusion protein) (Homo sapiens, UniProt Q96HC4); settings: PDZ LIM Protein, PDZ Domain 1; titration of the PL peptide; read-out: Peptide Optimal Conc (Kd, dissociation constant)
T5 construct: made in house; host or cells: E. coli (DH5alpha, BL21 or JM109)
Summary of the method: as §1

[6] = molecular target: T6, PDZ-domain polypeptide (GST/PDZ fusion protein) (Homo sapiens, UniProt Q14160); settings: PDZ KIAA0147, PDZ Domain 3; read-out: Peptide Optimal Conc (Kd by titration of the PL peptide)
T6 construct: made in house; host or cells: E. coli (DH5alpha, BL21 or JM109)
Summary of the method: as §1

[7] = molecular target: T7, PDZ-domain polypeptide (GST/PDZ fusion protein) (Homo sapiens, UniProt Q96RT1); settings: PDZ Erbin, PDZ Domain 1; read-out: Peptide Optimal Conc (Kd by titration of the PL peptide)
T7 construct: made in house; host or cells: E. coli (DH5alpha, BL21 or JM109)
Summary of the method: as §1

[8] = molecular target: T8, PDZ-domain polypeptide (GST/PDZ fusion protein) (Homo sapiens, UniProt Q9P202); settings: PDZ KIAA1526, PDZ Domain 1; read-out: Peptide Optimal Conc (Kd by titration of the PL peptide)
T8 construct: made in house; host or cells: E. coli (DH5alpha, BL21 or JM109)
Summary of the method: as §1

[9] = molecular target: T9, PDZ-domain polypeptide (GST/PDZ fusion protein) (Homo sapiens, UniProt O15018); settings: Peptide Optimal Conc (Kd by titration of the PL peptide), PDZ AIPC, PDZ Domain 1
T9 construct: made in house; host or cells: E. coli (DH5alpha, BL21 or JM109)
Summary of the method: as §1

[10] = molecular target: T10, PDZ-domain polypeptide (GST/PDZ fusion protein) (Homo sapiens, UniProt Q9Y3R0); settings: Peptide Optimal Conc (Kd by titration of the PL peptide), PDZ GRIP1, PDZ Domain 6
T10 construct: made in house; host or cells: E. coli (DH5alpha, BL21 or JM109)
Summary of the method: as §1

T10 sequence (Q9Y3R0 whole entry, the tested form may be a part): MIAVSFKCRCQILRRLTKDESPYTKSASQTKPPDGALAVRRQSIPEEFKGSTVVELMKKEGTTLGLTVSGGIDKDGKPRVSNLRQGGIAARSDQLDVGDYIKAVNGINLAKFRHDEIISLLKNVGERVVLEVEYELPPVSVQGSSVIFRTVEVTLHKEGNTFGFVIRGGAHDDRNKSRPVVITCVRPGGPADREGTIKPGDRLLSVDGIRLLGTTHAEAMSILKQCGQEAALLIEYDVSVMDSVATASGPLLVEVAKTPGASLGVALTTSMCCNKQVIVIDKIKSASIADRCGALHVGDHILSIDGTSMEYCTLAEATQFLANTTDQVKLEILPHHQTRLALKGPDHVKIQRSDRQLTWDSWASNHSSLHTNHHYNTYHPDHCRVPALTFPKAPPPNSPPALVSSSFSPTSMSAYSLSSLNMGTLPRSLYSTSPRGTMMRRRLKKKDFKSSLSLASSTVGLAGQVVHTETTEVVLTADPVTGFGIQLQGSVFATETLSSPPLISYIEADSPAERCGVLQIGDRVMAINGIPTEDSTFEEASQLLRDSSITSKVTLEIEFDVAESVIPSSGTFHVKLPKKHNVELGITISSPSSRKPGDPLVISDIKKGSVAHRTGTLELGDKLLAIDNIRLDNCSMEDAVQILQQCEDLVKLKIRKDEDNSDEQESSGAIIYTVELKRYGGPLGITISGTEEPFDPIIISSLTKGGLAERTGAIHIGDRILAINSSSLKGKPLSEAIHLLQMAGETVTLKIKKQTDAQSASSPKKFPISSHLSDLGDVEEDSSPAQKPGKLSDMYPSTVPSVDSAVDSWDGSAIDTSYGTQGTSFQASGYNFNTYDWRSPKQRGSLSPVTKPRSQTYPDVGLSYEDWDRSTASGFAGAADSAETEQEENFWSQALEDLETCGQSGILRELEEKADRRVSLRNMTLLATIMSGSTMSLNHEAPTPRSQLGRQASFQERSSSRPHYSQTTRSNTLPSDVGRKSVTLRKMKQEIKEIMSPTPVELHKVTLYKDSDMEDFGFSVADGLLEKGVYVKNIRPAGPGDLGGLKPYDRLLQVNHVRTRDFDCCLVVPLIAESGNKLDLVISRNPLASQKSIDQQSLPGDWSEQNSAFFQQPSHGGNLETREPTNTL
T8 sequence (Q9P202 whole entry, the tested form may be a part): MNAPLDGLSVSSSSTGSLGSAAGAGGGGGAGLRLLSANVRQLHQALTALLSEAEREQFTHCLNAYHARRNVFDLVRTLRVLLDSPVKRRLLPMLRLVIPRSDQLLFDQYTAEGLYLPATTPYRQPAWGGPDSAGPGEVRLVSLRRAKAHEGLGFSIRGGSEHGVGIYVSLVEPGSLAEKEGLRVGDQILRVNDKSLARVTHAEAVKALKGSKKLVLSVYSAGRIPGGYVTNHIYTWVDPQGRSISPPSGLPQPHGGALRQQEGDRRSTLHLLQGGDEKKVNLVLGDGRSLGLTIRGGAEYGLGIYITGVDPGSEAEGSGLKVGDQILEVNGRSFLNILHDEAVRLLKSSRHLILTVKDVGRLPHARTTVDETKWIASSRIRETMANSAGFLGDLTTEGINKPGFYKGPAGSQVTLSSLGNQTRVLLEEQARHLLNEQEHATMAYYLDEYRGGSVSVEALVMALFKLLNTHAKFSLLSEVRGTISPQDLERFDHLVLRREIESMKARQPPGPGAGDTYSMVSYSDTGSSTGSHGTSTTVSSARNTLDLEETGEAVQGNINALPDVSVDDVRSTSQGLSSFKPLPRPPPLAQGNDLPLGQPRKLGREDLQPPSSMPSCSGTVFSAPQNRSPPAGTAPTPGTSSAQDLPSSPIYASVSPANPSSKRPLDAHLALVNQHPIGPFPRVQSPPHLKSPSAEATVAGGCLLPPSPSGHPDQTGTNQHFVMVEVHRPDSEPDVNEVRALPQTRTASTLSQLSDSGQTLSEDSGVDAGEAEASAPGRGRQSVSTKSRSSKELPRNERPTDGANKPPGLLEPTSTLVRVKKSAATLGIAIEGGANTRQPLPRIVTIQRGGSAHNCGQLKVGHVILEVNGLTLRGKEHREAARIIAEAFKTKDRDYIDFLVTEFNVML
T2 sequence (Q9UDY2 whole entry, the tested form may be a part): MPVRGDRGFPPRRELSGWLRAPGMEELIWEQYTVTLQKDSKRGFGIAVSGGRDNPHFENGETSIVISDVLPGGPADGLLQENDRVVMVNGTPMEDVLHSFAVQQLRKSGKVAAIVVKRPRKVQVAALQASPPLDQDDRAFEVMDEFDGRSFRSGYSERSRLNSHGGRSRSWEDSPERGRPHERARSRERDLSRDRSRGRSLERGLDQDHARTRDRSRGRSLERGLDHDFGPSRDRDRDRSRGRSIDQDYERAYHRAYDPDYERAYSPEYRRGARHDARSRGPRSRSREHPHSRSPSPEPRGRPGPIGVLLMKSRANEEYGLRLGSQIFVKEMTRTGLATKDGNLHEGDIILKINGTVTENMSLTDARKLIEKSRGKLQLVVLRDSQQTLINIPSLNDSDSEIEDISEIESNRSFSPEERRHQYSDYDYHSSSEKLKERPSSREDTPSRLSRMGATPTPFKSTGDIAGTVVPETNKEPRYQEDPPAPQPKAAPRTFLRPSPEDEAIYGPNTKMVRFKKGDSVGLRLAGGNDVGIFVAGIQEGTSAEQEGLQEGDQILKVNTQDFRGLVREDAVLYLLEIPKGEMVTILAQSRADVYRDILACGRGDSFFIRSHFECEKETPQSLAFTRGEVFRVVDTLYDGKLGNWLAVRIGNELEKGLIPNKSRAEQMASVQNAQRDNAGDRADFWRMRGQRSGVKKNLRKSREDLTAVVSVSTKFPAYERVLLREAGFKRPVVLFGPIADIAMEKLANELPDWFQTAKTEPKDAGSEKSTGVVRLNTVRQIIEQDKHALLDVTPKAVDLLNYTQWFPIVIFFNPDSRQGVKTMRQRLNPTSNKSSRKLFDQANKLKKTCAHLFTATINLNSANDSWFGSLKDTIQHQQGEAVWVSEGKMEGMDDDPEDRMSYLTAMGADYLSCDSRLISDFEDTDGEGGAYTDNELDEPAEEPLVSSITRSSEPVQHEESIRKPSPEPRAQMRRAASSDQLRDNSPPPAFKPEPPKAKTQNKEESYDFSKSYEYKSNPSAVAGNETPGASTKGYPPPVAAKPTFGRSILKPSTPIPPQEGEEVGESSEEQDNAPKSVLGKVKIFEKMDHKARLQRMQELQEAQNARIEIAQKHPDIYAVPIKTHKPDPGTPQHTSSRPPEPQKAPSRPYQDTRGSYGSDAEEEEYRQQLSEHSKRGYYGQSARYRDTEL
T4 sequence (O14907 whole entry, the tested form may be a part): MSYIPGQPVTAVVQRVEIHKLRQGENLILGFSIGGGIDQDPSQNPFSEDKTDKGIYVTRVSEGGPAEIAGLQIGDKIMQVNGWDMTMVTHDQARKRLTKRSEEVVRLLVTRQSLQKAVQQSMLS
T3 sequence (P57105 whole entry, the tested form may be a part): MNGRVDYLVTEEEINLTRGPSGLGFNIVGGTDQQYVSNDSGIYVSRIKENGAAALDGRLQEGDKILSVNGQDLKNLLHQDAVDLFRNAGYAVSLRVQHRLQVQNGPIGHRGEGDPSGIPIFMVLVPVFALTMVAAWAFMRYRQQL
T7 sequence (Q96RT1 whole entry, the tested form may be a part): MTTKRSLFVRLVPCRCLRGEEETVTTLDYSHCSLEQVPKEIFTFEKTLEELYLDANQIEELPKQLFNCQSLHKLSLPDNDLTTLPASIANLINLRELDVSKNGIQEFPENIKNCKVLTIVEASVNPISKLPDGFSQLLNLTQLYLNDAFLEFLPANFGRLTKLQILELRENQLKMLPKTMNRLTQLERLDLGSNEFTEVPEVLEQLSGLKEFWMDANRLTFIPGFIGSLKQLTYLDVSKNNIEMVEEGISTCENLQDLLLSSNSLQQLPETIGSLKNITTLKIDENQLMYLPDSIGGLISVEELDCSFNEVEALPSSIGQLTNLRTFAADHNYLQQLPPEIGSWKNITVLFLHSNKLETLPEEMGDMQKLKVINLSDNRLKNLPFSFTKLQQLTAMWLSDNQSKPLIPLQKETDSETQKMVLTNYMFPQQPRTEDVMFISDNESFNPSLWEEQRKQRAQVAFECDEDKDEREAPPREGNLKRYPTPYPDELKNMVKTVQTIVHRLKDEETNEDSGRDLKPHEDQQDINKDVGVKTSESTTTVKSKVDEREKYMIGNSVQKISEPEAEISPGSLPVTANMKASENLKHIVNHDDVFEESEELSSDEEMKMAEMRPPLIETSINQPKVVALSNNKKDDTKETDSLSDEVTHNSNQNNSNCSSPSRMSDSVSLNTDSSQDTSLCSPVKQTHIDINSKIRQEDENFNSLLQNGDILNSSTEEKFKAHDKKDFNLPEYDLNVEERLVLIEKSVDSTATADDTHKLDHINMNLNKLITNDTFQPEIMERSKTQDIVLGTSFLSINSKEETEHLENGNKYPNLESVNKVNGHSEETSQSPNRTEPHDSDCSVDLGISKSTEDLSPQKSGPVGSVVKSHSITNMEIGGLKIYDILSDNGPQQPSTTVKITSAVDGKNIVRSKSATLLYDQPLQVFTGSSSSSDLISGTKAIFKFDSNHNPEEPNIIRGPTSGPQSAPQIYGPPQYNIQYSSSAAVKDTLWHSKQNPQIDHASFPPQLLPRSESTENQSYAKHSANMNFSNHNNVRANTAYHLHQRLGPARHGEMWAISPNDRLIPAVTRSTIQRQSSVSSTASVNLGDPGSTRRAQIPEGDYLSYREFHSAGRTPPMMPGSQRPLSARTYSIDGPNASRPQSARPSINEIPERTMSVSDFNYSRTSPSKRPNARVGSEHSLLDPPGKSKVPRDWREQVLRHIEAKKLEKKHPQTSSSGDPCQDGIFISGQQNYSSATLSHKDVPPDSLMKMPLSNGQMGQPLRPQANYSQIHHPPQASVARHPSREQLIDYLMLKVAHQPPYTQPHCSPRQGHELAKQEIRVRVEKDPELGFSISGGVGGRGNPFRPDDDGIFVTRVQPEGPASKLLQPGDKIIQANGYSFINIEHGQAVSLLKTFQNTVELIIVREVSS

Compound: CC[C@H](C)[C@H](NC(=O)[C@H](CC(=O)O)NC(=O)[C@H](CCC(=O)O)NC(=O)[C@H](CCCNC(=N)N)NC(=O)[C@@H](NC(=O)CCCC[C@@H]1SC[C@@H]2NC(=O)N[C@@H]21)[C@@H](C)O)C(=O)N[C@@H](Cc1ccc(O)cc1)C(=O)N[C@H](C(=O)N[C@@H](CC(N)=O)C(=O)N[C@@H](Cc1ccc(O)cc1)C(=O)N1CCC[C@H]1C(=O)N[C@H](C(=O)N[C@@H](Cc1ccccc1)C(=O)N[C@@H](CO)C(=O)N[C@@H](CCCNC(=N)N)C(=O)N[C@@H](CCCNC(=N)N)C(=O)N1CCC[C@H]1C(=O)N[C@@H](CCCCN)C(=O)N[C@H](C(=O)N[C@@H](CCCNC(=N)N)C(=O)N[C@H](C(=O)O)C(C)C)[C@@H](C)O)[C@@H](C)O)C(C)C [DNAM-1] (Biotin-TREDIYVNYPTFSRRPKTRV-OH; C-terminus assumed)
Kd [1]: 2500 nM
Kd [2]: 3000 nM

Compound: CC[C@H](C)[C@H](NC(=O)[C@H](CCCCN)NC(=O)[C@@H](NC(=O)[C@H](CO)NC(=O)[C@@H]1CCCN1C(=O)[C@H](Cc1ccccc1)NC(=O)[C@@H](NC(=O)[C@@H](NC(=O)[C@H](CCCNC(=N)N)NC(=O)[C@H](CCC(=O)O)NC(=O)[C@H](CC(C)C)NC(=O)[C@H](CC(C)C)NC(=O)[C@H](CC(C)C)NC(=O)[C@@H](NC(=O)CNC(=O)[C@@H](NC(=O)CCCC[C@@H]1SC[C@@H]2NC(=O)N[C@@H]21)C(C)C)[C@@H](C)O)C(C)C)[C@@H](C)CC)C(C)C)C(=O)N[C@@H](C)C(=O)N[C@H](C(=O)N[C@@H](CC(C)C)C(=O)N[C@H](C(=O)O)C(C)C)[C@@H](C)O [Adenovirus E4 Type9]
Kd [3]: 100 nM

Kd [4]: 1000 nM
Kd [5]: 2000 nM
Compound: CC(C)C[C@H](NC(=O)[C@H](CC(=O)O)NC(=O)[C@H](CO)NC(=O)[C@H](CCC(=O)O)NC(=O)CNC(=O)[C@H](Cc1ccc(O)cc1)NC(=O)[C@H](CC(C)C)NC(=O)[C@H](C)NC(=O)[C@H](CO)NC(=O)[C@H](CO)NC(=O)[C@H](Cc1ccccc1)NC(=O)[C@H](C)NC(=O)[C@H](C)NC(=O)[C@H](Cc1ccc(O)cc1)NC(=O)[C@H](CC(=O)O)NC(=O)[C@H](CC(C)C)NC(=O)[C@H](C)NC(=O)CNC(=O)[C@@H]1CCCN1C(=O)[C@@H](NC(=O)CCCC[C@@H]1SC[C@@H]2NC(=O)N[C@@H]21)C(C)C)C(=O)O [a-actinin 2] (Biotin-VPGALDYAAFSSALYGESDL-OH; C-terminus assumed)

Compound: CSCC[C@H](NC(=O)[C@H](C)NC(=O)[C@H](CCCNC(=N)N)NC(=O)CNC(=O)[C@@H](NC(=O)[C@H](Cc1c[nH]c2ccccc12)NC(=O)[C@H](CCCNC(=N)N)NC(=O)CNC(=O)CCCC[C@@H]1SC[C@@H]2NC(=O)N[C@@H]21)[C@@H](C)O)C(=O)N[C@@H](CO)C(=O)N[C@@H](C)C(=O)N[C@@H](Cc1c[nH]c2ccccc12)C(=O)N[C@@H](CCCCN)C(=O)N1CCC[C@H]1C(=O)N[C@H](C(=O)N[C@@H](CCCNC(=N)N)C(=O)N[C@@H](CCCNC(=N)N)C(=O)N[C@@H](CCC(=O)O)C(=O)N[C@H](C(=O)N[C@@H](CCC(=O)O)C(=O)N[C@H](C(=O)O)C(C)C)[C@@H](C)O)[C@@H](C)O [HPV E6 #35 (modified)] (Biotin-GRWTGRAMSAWKPTRRETEV-OH; C-terminus assumed)
Kd [6]: 350 nM
Kd [7]: 400 nM
Kd [8]: 1000 nM

Compound: CC[C@H](C)[C@H](NC(=O)[C@H](C)NC(=O)[C@H](CC(C)C)NC(=O)[C@H](Cc1c[nH]c2ccccc12)NC(=O)[C@H](Cc1c[nH]cn1)NC(=O)[C@H](CCC(N)=O)NC(=O)[C@H](CC(C)C)NC(=O)[C@H](CCC(N)=O)NC(=O)[C@H](Cc1ccccc1)NC(=O)[C@H](CCC(N)=O)NC(=O)[C@H](CCCNC(=N)N)NC(=O)[C@@H](NC(=O)[C@H](CC(=O)O)NC(=O)[C@H](CCCNC(=N)N)NC(=O)[C@H](CCC(N)=O)NC(=O)[C@H](C)NC(=O)[C@@H](NC(=O)[C@H](CC(C)C)NC(=O)[C@H](Cc1c[nH]cn1)NC(=O)[C@H](Cc1c[nH]cn1)NC(=O)CCCC[C@@H]1SC[C@@H]2NC(=O)N[C@@H]21)C(C)C)[C@@H](C)CC)C(=O)O [noradrenaline transporter] (Biotin-HHLVAQRDIRQFQLQHWLAI-OH; C-terminus assumed)
Kd [9]: 600 nM
Kd [10]: 500 nM
